Test results: paper PMC6910946, “Multiple roles of Bet v 1 ligands in allergen stabilization and modulation of endosomal protease activity” (Allergy, 2019)
Like-named read-outs stand apart in the source and are kept apart here.

Key:
Bet_v_1 [1] = biological target: T1, Bet_v_1 (Betula pendula, UniProt P15494); assay: Thermal stability of Bet v 1 by FTIR spectroscopy; assay type: physicochemical, Betula verrucosa; conditions: for ΔFTIR: change of Tm of Bet v 1 versus no ligand; for T m FTIR: melting point of Bet v 1 with or without ligand
T1 construct: made in house
T1 sequence (P15494 1-160): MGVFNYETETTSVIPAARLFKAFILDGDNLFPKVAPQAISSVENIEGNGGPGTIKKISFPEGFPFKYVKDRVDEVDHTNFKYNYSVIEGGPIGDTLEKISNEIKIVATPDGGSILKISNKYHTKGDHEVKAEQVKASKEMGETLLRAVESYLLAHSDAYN
Excerpt: Surface acoustic wave (SAW) technology and NMR spectroscopy were used to observe the interaction of Bet_v_1 with the selected compounds, including determination of the dissociation constant (K d). The influence of ligand binding on the secondary structure elements and the thermal stability of Bet_v_1 was monitored using circular dichroism (CD, JASCO J‐815 spectropolarimeter, Jasco) and Fourier transform infrared (FTIR) spectroscopy (Tensor II FTIR system, Bruker Optics Inc). A detailed description of these methods is available (Appendix [Link], [Link]). […]
Determination of secondary structure elements and thermal stability
(§1) The influence of ligand binding on the secondary structure elements and the thermal stability of Bet v 1 was addressed by circular dichroism (CD) and Fourier transform infrared (FTIR) spectroscopy. CD spectroscopy was performed with a JASCO J-815 spectropolarimeter fitted with a PTC-423S Peltier-type single position cell holder (Jasco, Tokyo, Japan) over the wavelength range 190 to 260 nm. For measurement, Bet v 1 with and without ligand was diluted in a 10 mM potassium phosphate buffer to a concentration of 0.1 mg/ml. The thermal stability analysis was recorded at 222 nm. The protein was denatured with a temperature slope of 1° C/min from 20 to 95° C.
FTIR amide 1 and amide 2 spectra of Bet v 1 at concentrations of 1.0-2.0 mg/ml with and without ligand were recorded with an AquaSpec transmission cell adapted to a Tensor II FTIR system (Bruker Optics Inc., Billerica, MA, USA). Measurement was performed at a constant temperature (25° C), controlled by a Haake F8 thermostat (Thermo Electron, Germany) with internal temperature control. For data analysis, OPUS spectroscopy software 6.0 (Bruker Optics Inc., Billerica, MA, USA) was used. The Savitzky-Golay algorithm was applied on […]
vector-normalized amide 1 spectra (25 smoothing points) to obtain the second derivative. For the quantification of secondary structure elements, a Quant2 method of the OPUS software was used. For thermal stability analysis, spectra were recorded with a BioATR II unit (Bruker Optics Inc., Billerica, MA, USA) at 25 to 95° C (dT=2.5K). The determined relative signal change in the amide I band by creating a difference spectrum for each temperature point was used to calculate the melting point (Tm). […]

[2] = test system: CD11c+ murine bone marrow–derived dendritic cells (BMDCs); assay: In vitro antigen uptake of labeled Bet v 1 by BMDCs; assay type: cell-based, mouse; conditions: Bet v 1 with or without ligand; 1, 6, 24 h; FACS
Protocol: The ability of ligand‐loaded Bet_v_1 to induce IgE‐antigen cross‐linking and basophil degranulation was assessed by mediator‐release assays using rat basophil (RBL‐2H3) cells, transfected with the human high‐affinity IgE receptor (FcεRI), as previously described.2, 24 In vitro uptake of labeled Bet_v_1 was performed using CD11c^+ murine bone marrow–derived dendritic cells (BMDCs). The maturation of human monocyte‐derived dendritic cells (moDCs) was analyzed as previously described.2 T‐cell proliferation assays using CD4^+ T‐cell hybridomas were performed as previously described.17 A detailed description of the in vitro assays is available (Appendix [Link], [Link]).
BMDCs from C57BL/6 mouse bone marrow were isolated as described previously.^5 cultured in BMDC medium (RPMI 1640, 5% fetal calf serum, 2 mM L-glutamine, 1% penicillin-streptomycin, 20% granulocyte-macrophage colony-stimulating factor supernatant and 200 µM β-mercaptoethanol) (BMDC medium) for 10 days, and stored frozen in liquid nitrogen. BMDCs were treated over a certain period of time (24, 6 or 1 hours) with 0.5 µg of Bet v 1 per 2x10^5 cells. Bet v 1 was labeled with pHrodo™ Red succinimidyl ester (Thermo Fisher Scientific, Waltham, MA, USA) and pre-incubated with one of the ligands (DOC, Q3OS or PPE1). CD11c^+ cells were analyzed via flow cytometry (allophycocyanin-conjugated anti-mouse CD11c antibody, clone N418; eBioscience, Inc., San Diego, CA, USA) on a FACSCanto II instrument (BD Biosciences, San Jose, CA, USA). For the live/dead staining a fixable viability stain 450 (BD Biosciences) was used. Granulocytes and monocytes were excluded via the V450 Rat anti-Mouse LY-6G and LY-6C (BD Biosciences) antibody. Data were recorded and analyzed using the BD FACSDiva software (BD Biosciences). Statistical analysis was performed using ANOVA with a Bonferroni post-test to compare all groups. The data represent the mean of duplicate experiments and are derived from at least 2 independent experiments.

Bet_v_1 [3] = biological target: T1, Bet_v_1; assay: Thermal stability and secondary structure of Bet v 1 by circular dichroism (CD); assay type: physicochemical, Betula verrucosa; conditions: for increased melting point (T m) of Bet v 1 bound to ligand: CD and FTIR spectroscopy; for ΔCD: change of Tm of Bet v 1 versus no ligand
Excerpt: Surface acoustic wave (SAW) technology and NMR spectroscopy were used to observe the interaction of Bet_v_1 with the selected compounds, including determination of the dissociation constant (K d). The influence of ligand binding on the secondary structure elements and the thermal stability of Bet_v_1 was monitored using circular dichroism (CD, JASCO J‐815 spectropolarimeter, Jasco) and Fourier transform infrared (FTIR) spectroscopy (Tensor II FTIR system, Bruker Optics Inc). A detailed description of these methods is available (Appendix [Link], [Link]).
as §1, with “1°C/min” for “1° C/min”, “95°C.” for “95° C.”

[4] = melting point of Bet v 1 with or without ligand, 222 nm

SMILES	ΔFTIR (Bet_v_1 [1])	T m FTIR (Bet_v_1 [1]) [°C]	antigen uptake of pHrodo Red‐labeled Bet v 1 [2]	T m CD (Bet_v_1 [3]) [°C]	secondary structure content of Bet v 1 (Bet_v_1 [3])	increased melting point (T m) of Bet v 1 bound to ligand (Bet_v_1 [3])	secondary structure content of Bet v 1 (Bet_v_1 [3]; CD and FTIR, Figure S4)	ΔCD (Bet_v_1 [3])	T m CD (Bet_v_1 [3]; [4]) [°C]
C[C@H](CCC(=O)O)[C@H]1CC[C@H]2[C@@H]3CC[C@@H]4C[C@H](O)CC[C@]4(C)[C@H]3C[C@H](O)[C@]12C [DOC, sodium deoxycholate, reference compound]	+3.22 °C	66.6	None of the above described readouts was influenced	67.44	did not significantly alter its secondary structure content	approximately 4 °C	–	–	–
CCC1C(=O)CC(O)C1/C=C/C(O)CCCCCCCC(=O)O (stereo not shown) [PPE1, E1 phytoprostanes]	+5.93 °C	69.31	None of the above described readouts was influenced	–	–	~7 °C	did not significantly alter its secondary structure content	+6.94 °C	70.62
O=c1c(O[C@@H]2O[C@H](CO)[C@@H](O)[C@H](O)[C@H]2O[C@@H]2O[C@H](CO)[C@@H](O)[C@H](O)[C@H]2O)c(-c2ccc(O)c(O)c2)oc2cc(O)cc(O)c12 [Q3OS, quercetin 3‐O‐sophoroside]	+1.88 °C	65.26	None of the above described readouts was influenced	–	–	–	did not significantly alter its secondary structure content	+0.36 °C	64.04
